Source: US20240246960A1 (adMare Therapeutics Society, priority 2021, published 2024)
pEC50, pIC50: −log10 of the molar value. Like-named read-outs stand apart in the source and are kept apart here.

How the values were obtained:
[1] = molecular target: T1, DNA-PK phosphorylation at Serine 2056 (Homo sapiens, UniProt P78527); assay: Cellular Assay for Inhibition of DNA-PK Phosphorylation at Serine 2056 (FaDu cells, neocarzinostatin, sandwich ELISA); format: cell-based; conditions: Table 1
T1 construct: host or cells: FaDu
In short: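 FaDu cells were pretreated with compound (0.3% DMSO) for 1 h, then exposed to neocarzinostatin at 1 μg/mL final for 2 h to induce DSBs. Protein-normalized lysates were assayed by MSD sandwich ELISA for total and pSer2056 DNA-PK. IC50 came from variable-slope fits of % inhibition relative to DMSO and NCS controls.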

[2] = molecular target: T2, pDNA-PK ser2056 induction in HCT116 spheroids (Homo sapiens, UniProt P78527); assay: Multicellular tumour spheroid + radiation, pDNA-PK inhibition, HCT116; format: cell-based; conditions: 20 Gy
T2 construct: endogenous in cells; host or cells: HCT116 multicellular tumour spheroids
In short: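 HCT116 spheroids (~0.5 mm) in MEM/10% FBS/10 mM glucose, 20% O2, 37 °C, pre-incubated 1 h with compound (10 or 5 μM down to 3.5 nM), irradiated 20 Gy, incubated 2 h more. Cryosections immunostained for pDNA-PK ser2056; EC50 (μM) for 50% reduction of radiation-induced pDNA-PK.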

[3] = Example 7, spheroid, cell line HCT115 [sic], 20% O2, read-out: EC50 (pDNA-PK inhibition, immunohistochemical endpoint)
[4] = Example 9 Study 2, 20% O2, read-out: Spheroid Cell line: HCT116 Immunohistochemical endpoint pDNA-PK inhibition EC50
[5] = Example 8, spheroid, read-out: Cell line: HCT116 Immunohistochemical endpoint pDNA-PK inhibition EC50

pIC50 [1] | pEC50 [2, 3] | pEC50 [2, 4] | pEC50 [2, 5] | Structure (SMILES)
> 7.00 | 6.30 to 8.00 | 6.30 to 8.00 |  | NC(=O)c1cnc(N[C@H]2CC[C@@H](Oc3nc(N4CCOCC4)cc4ncccc34)CC2)nc1 [Compound 52, 2-(((1s,4s)-4-((7-morpholino-1,6-naphthyridin-5-yl)oxy)cyclohexyl)amino)pyrimidine-5-carboxamide]
> 7.00 | 6.00 to 6.30 | 6.00 to 6.30 |  | CN(C)C(=O)c1cnc(N[C@H]2CC[C@@H](Oc3nc(N4CCOCC4)cc4ncccc34)CC2)nc1 [Compound 53, N,N-dimethyl-2-(((1s,4s)-4-((7-morpholino-1,6-naphthyridin-5-yl)oxy)cyclohexyl)amino)pyrimidine-5-carboxamide]
6.00 to 7.00 | 6.30 to 8.00 | 6.30 to 8.00 |  | c1cnc2cc(N3CCOCC3)nc(O[C@H]3CC[C@@H](Nc4ncnc5ccoc45)CC3)c2c1 [Compound 80a, N-((1s,4s)-4-((7-morpholino-1,6-naphthyridin-5-yl)oxy)cyclohexyl)furo[3,2-d]pyrimidin-4-amine]
6.00 to 7.00 | 6.00 to 6.30 | 6.00 to 6.30 |  | Cc1nc(N[C@H]2CC[C@@H](Oc3nc(N4CCOCC4)cc4ncccc34)CC2)c2occc2n1 [Compound 81, 2-methyl-N-((1s,4s)-4-((7-morpholino-1,6-naphthyridin-5-yl)oxy)cyclohexyl)furo[3,2-d]pyrimidin-4-amine]
> 7.00 | 6.30 to 8.00 | 6.30 to 8.00 |  | c1cnc2cc(N3CCOCC3)nc(O[C@H]3CC[C@@H](Nc4ncnc5occc45)CC3)c2c1 [Compound 82, N-((1s,4s)-4-((7-morpholino-1,6-naphthyridin-5-yl)oxy)cyclohexyl)furo[2,3-d]pyrimidin-4-amine]
> 7.00 | 6.30 to 8.00 | 6.30 to 8.00 |  | c1cnc2cc(N3CCOCC3)nc(O[C@H]3CC[C@@H](Nc4ncnc5ccsc45)CC3)c2c1 [Compound 83, N-((1s,4s)-4-((7-morpholino-1,6-naphthyridin-5-yl)oxy)cyclohexyl)thieno[3,2-d]pyrimidin-4-amine]
6.00 to 7.00 | 6.00 to 6.30 | 6.00 to 6.30 |  | c1cnc2cc(N3CCOCC3)nc(O[C@H]3CC[C@@H](Nc4ncc5sccc5n4)CC3)c2c1 [Compound 84, N-((1s,4s)-4-((7-Morpholino-1,6-naphthyridin-5-yl)oxy)cyclohexyl)thieno[3,2-d]pyrimidin-2-amine]
> 7.00 | 6.30 to 8.00 | 6.30 to 8.00 |  | c1cnc2cc(N3CCOCC3)nc(O[C@H]3CC[C@@H](Nc4ncc5[nH]ccc5n4)CC3)c2c1 [Compound 85, N-((1s,4s)-4-((7-Morpholino-1,6-naphthyridin-5-yl)oxy)cyclohexyl)-5H-pyrrolo[3,2-d]pyrimidin-2-amine]
> 7.00 | 6.30 to 8.00 | 6.30 to 8.00 |  | Cn1ccc2nc(N[C@H]3CC[C@@H](Oc4nc(N5CCOCC5)cc5ncccc45)CC3)ncc21 [Compound 87, 5-Methyl-N-((1s,4s)-4-((7-morpholino-1,6-naphthyridin-5-yl)oxy)cyclohexyl)-5H-pyrrolo[3,2-d]pyrimidin-2-amine]
6.00 to 7.00 | 6.30 to 8.00 | 6.30 to 8.00 |  | Cn1cnc2cnc(N[C@H]3CC[C@@H](Oc4nc(N5CCOCC5)cc5ncccc45)CC3)nc21 [Compound 88, 9-Methyl-N-((1s,4s)-4-((7-morpholino-1,6-naphthyridin-5-yl)oxy)cyclohexyl)-9H-purin-2-amine]
6.00 to 7.00 | 6.00 to 6.30 | 6.00 to 6.30 |  | c1cnc2cc(N3CCOCC3)nc(O[C@H]3CC[C@@H](Nc4ccn5nccc5n4)CC3)c2c1 [Compound 89, N-((1s,4s)-4-((7-Morpholino-1,6-naphthyridin-5-yl)oxy)cyclohexyl)pyrazolo[1,5-a]pyrimidin-5-amine]
> 7.00 | 6.00 to 6.30 | 6.00 to 6.30 |  | O=C(N[C@H]1CC[C@@H](Oc2nc(N3CCOCC3)cc3ncccc23)CC1)c1ccncc1 [Compound 113, N-((1s,4s)-4-((7-morpholino-1,6-naphthyridin-5-yl)oxy)cyclohexyl)isonicotinamide]
> 7.00 | 5.00 to 6.00 | 5.00 to 6.00 |  | O=C(N[C@H]1CC[C@@H](Oc2nc(N3CCOCC3)cc3ncccc23)CC1)c1cccnc1 [Compound 115, N-((1s,4s)-4-((7-morpholino-1,6-naphthyridin-5-yl)oxy)cyclohexyl)nicotinamide]
6.00 to 7.00 | 5.00 to 6.00 | 5.00 to 6.00 |  | O=C(N[C@H]1CC[C@@H](Oc2nc(N3CCOCC3)cc3ncccc23)CC1)c1ccncn1 [Compound 118, N-((1s,4s)-4-((7-morpholino-1,6-naphthyridin-5-yl)oxy)cyclohexyl)pyrimidine-4-carboxamide]
> 7.00 | 5.00 to 6.00 | 5.00 to 6.00 |  | O=C(N[C@H]1CC[C@@H](Oc2nc(N3CCOCC3)cc3ncccc23)CC1)c1ccnnc1 [Compound 121, N-((1s,4s)-4-((7-morpholino-1,6-naphthyridin-5-yl)oxy)cyclohexyl)pyridazine-4-carboxamide]
6.00 to 7.00 | 5.00 to 6.00 | 5.00 to 6.00 | 5.00 to 6.00 | O=C(N[C@H]1CC[C@@H](Oc2nc(N3CCOCC3)cc3ncccc23)CC1)c1cncnc1 [Compound 122, N-((1s,4s)-4-((7-Morpholino-1,6-naphthyridin-5-yl)oxy)cyclohexyl)pyrimidine-5-carboxamide]
6.00 to 7.00 | 6.00 to 6.30 | 6.00 to 6.30 | 6.00 to 6.30 | O=C(N[C@H]1CC[C@@H](Oc2nc(N3CCOCC3)cc3ncccc23)CC1)c1ncccn1 [Compound 123, N-((1s,4s)-4-((7-Morpholino-1,6-naphthyridin-5-yl)oxy)cyclohexyl)pyrimidine-2-carboxamide]
> 7.00 | 6.30 to 8.00 | 6.30 to 8.00 | 6.30 to 8.00 | O=C(N[C@H]1CC[C@@H](Oc2nc(N3CCOCC3)cc3ncccc23)CC1)c1ccco1 [Compound 132, N-((1s,4s)-4-((7-Morpholino-1,6-naphthyridin-5-yl)oxy)cyclohexyl)furan-2-carboxamide]
6.00 to 7.00 | 5.00 to 6.00 | 5.00 to 6.00 | 5.00 to 6.00 | O=C(N[C@H]1CC[C@@H](Oc2nc(N3CCOCC3)cc3ncccc23)CC1)c1ccc(C(F)(F)F)o1 [Compound 133, N-((1s,4s)-4-((7-Morpholino-1,6-naphthyridin-5-yl)oxy)cyclohexyl)-5-(trifluoromethyl)furan-2-carboxamide]
6.00 to 7.00 | 5.00 to 6.00 | 5.00 to 6.00 |  | O=C(N[C@H]1CC[C@@H](Oc2nc(N3CCOCC3)cc3ncccc23)CC1)c1nccs1 [Compound 135, N-((1s,4s)-4-((7-morpholino-1,6-naphthyridin-5-yl)oxy)cyclohexyl)thiazole-2-carboxamide]
> 7.00 | 6.30 to 8.00 | 6.30 to 8.00 |  | O=C(N[C@H]1CC[C@@H](Oc2nc(N3CCOCC3)cc3ncccc23)CC1)c1cc[nH]c1 [Compound 140, N-((1s,4s)-4-((7-morpholino-1,6-naphthyridin-5-yl)oxy)cyclohexyl)-1H-pyrrole-3-carboxamide]
> 7.00 | 5.00 to 6.00 | 5.00 to 6.00 |  | O=C(N[C@H]1CC[C@@H](Oc2nc(N3CCOCC3)cc3ncccc23)CC1)c1ncco1 [Compound 142, N-((1s,4s)-4-((7-morpholino-1,6-naphthyridin-5-yl)oxy)cyclohexyl)oxazole-2-carboxamide]
> 7.00 | 5.00 to 6.00 | 5.00 to 6.00 |  | O=C(N[C@H]1CC[C@@H](Oc2nc(N3CCOCC3)cc3ncccc23)CC1)c1c[nH]cn1 [Compound 144, N-((1s,4s)-4-((7-morpholino-1,6-naphthyridin-5-yl)oxy)cyclohexyl)-1H-imidazole-4-carboxamide]
6.00 to 7.00 | 5.00 to 6.00 | 5.00 to 6.00 | 5.00 to 6.00 | CS(=O)(=O)Nc1cnc2cc(N3CCOCC3)nc(O[C@H]3CC[C@@H](n4ccnc4)CC3)c2c1 [Compound 161, N-(5-(((1s,4s)-4-(1H-imidazol-1-yl)cyclohexyl)oxy)-7-morpholino-1,6-naphthyridin-3-yl)methanesulfonamide]
> 7.00 | 6.30 to 8.00 | 6.30 to 8.00 |  | CS(=O)(=O)Nc1cnc2cc(N3CCOCC3)nc(O[C@H]3CC[C@@H](Nc4ncccn4)CC3)c2c1 [Compound 185, N-(7-morpholino-5-(((1s,4s)-4-(pyrimidin-2-ylamino)cyclohexyl)oxy)-1,6-naphthyridin-3-yl)methanesulfonamide]
> 7.00 | 6.30 to 8.00 | 6.30 to 8.00 |  | COc1cnc(N[C@H]2CC[C@@H](Oc3nc(N4CCOCC4)cc4ncc(NS(C)(=O)=O)cc34)CC2)nc1 [Compound 203, N-(5-(((1s,4s)-4-((5-methoxypyrimidin-2-yl)amino)cyclohexyl)oxy)-7-morpholino-1,6-naphthyridin-3-yl)methanesulfonamide]
> 7.00 | 5.00 to 6.00 | 5.00 to 6.00 |  | CS(=O)(=O)Nc1cnc2cc(N3CCOCC3)nc(O[C@H]3CC[C@@H](NC(=O)c4ncco4)CC3)c2c1 [Compound 205, N-((1s,4s)-4-((3-(methylsulfonamido)-7-morpholino-1,6-naphthyridin-5-yl)oxy)cyclohexyl)oxazole-2-carboxamide]
